According to PubChem BioAssay AID1963975 (Molecular Pharmacology Branch, DTP, NCI, 2024):

System: 624824-186-R-J2-PDC multicell spheroids, viability
Assay: Anticancer human tumor 624824-186-R-J2-PDC patient-derived colon adenocarcinoma cell line growth inhibition [PI3K]
Settings: for IC50: curve of first compound; for viability, T/C: stronger effect = lower value
In short: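 High-throughput combination screen: PI3K inhibitors crossed with targeted small molecules on complex spheroids of tumor cells, HUVEC and MSCs at 37 degrees C, 5% CO2. Top concentration was at or near clinical Cmax (otherwise 10 microM), with half-log decrements.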

[1] = second compound 0.00316 µM, first compound 0.0316 µM
[2] = second compound 0.00316 µM, first compound 0.1 µM
[3] = second compound 0.00316 µM, first compound 0.316 µM
[4] = second compound 0.00316 µM, first compound 1 µM
[5] = second compound 0.01 µM, first compound 0.0316 µM
[6] = second compound 0.01 µM, first compound 0.1 µM
[7] = second compound 0.01 µM, first compound 0.316 µM
[8] = second compound 0.01 µM, first compound 1 µM
[9] = second compound 0.0316 µM, first compound 0.00316 µM
[10] = second compound 0.0316 µM, first compound 0.01 µM
[11] = second compound 0.0316 µM, first compound 0.0316 µM
[12] = second compound 0.0316 µM, first compound 0.1 µM
[13] = second compound 0.0316 µM, first compound 0.316 µM
[14] = second compound 0.0316 µM, first compound 1 µM
[15] = second compound 0.1 µM, first compound 0.00316 µM
[16] = second compound 0.1 µM, first compound 0.01 µM
[17] = second compound 0.1 µM, first compound 0.0316 µM
[18] = second compound 0.1 µM, first compound 0.1 µM
[19] = second compound 0.1 µM, first compound 0.316 µM
[20] = second compound 0.1 µM, first compound 1 µM
[21] = second compound 0.316 µM, first compound 0.00316 µM
[22] = second compound 0.316 µM, first compound 0.01 µM
[23] = second compound 0.316 µM, first compound 0.0316 µM
[24] = second compound 0.316 µM, first compound 0.1 µM
[25] = second compound 0.316 µM, first compound 0.316 µM
[26] = second compound 0.316 µM, first compound 1 µM
[27] = second compound 1 µM, first compound 0.00316 µM
[28] = second compound 1 µM, first compound 0.01 µM
[29] = second compound 1 µM, first compound 0.0316 µM
[30] = second compound 1 µM, first compound 0.1 µM
[31] = second compound 1 µM, first compound 0.316 µM
[32] = second compound 1 µM, first compound 1 µM
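Also: spheroids exposed to agents for 7 days before viability read.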
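For viability, T/C in this document: 100% = DMSO vehicle treated spheroids.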

## CCN1CCN(Cc2ccc(Nc3ncc(F)c(-c4cc(F)c5nc(C)n(C(C)C)c5c4)n3)nc2)CC1 + COc1c(OCCCN2CCOCC2)ccc2c3n(c(=NC(=O)c4cnc(N)nc4)nc12)CCN3
Second compound 0.00316 µM
  IC50: > 1000 nM
Second compound 0.01 µM
  IC50: > 1000 nM
Second compound 0.0316 µM
  IC50: > 1000 nM
Second compound 0.1 µM
  IC50: > 1000 nM
Second compound 0.316 µM
  IC50: > 1000 nM
Second compound 1 µM
  IC50: > 1000 nM
Second compound 0.00316 µM, first compound 0.00316 µM
  viability, T/C: 94.1%
Second compound 0.00316 µM, first compound 0.01 µM
  viability, T/C: 90.4%
[1]
  viability, T/C: 107%
[2]
  viability, T/C: 76.5%
[3]
  viability, T/C: 89.4%
[4]
  viability, T/C: 106%
Second compound 0.01 µM, first compound 0.00316 µM
  viability, T/C: 120%
Second compound 0.01 µM, first compound 0.01 µM
  viability, T/C: 73.7%
[5]
  viability, T/C: 78.7%
[6]
  viability, T/C: 75.9%
[7]
  viability, T/C: 81.7%
[8]
  viability, T/C: 94.6%
[9]
  viability, T/C: 91.8%
[10]
  viability, T/C: 99.1%
[11]
  viability, T/C: 75.3%
[12]
  viability, T/C: 66.9%
[13]
  viability, T/C: 80.5%
[14]
  viability, T/C: 89.9%
[15]
  viability, T/C: 81.1%
[16]
  viability, T/C: 63.4%
[17]
  viability, T/C: 64.6%
[18]
  viability, T/C: 54.2%
[19]
  viability, T/C: 68.2%
[20]
  viability, T/C: 83.8%
[21]
  viability, T/C: 69.1%
[22]
  viability, T/C: 57.6%
[23]
  viability, T/C: 58.9%
[24]
  viability, T/C: 58.9%
[25]
  viability, T/C: 69.4%
[26]
  viability, T/C: 91.8%
[27]
  viability, T/C: 64.2%
[28]
  viability, T/C: 56.9%
[29]
  viability, T/C: 61.4%
[30]
  viability, T/C: 62.9%
[31]
  viability, T/C: 72.9%
[32]
  viability, T/C: 88%

## CNC(=O)c1ccc(N2C(=S)N(c3ccc(C#N)c(C(F)(F)F)c3)C(=O)C2(C)C)cc1F + CC(Nc1ccc2c(c1)OCCn1cc(N3C(=O)OCC3C(F)F)nc1-2)C(N)=O
Second compound 0.00316 µM
  IC50: > 10000 nM
Second compound 0.01 µM
  IC50: > 10000 nM
Second compound 0.0316 µM
  IC50: > 10000 nM
Second compound 0.1 µM
  IC50: > 10000 nM
Second compound 0.316 µM
  IC50: > 10000 nM
Second compound 1 µM
  IC50: > 10000 nM
[1]
  viability, T/C: 90.2%
[2]
  viability, T/C: 90.7%
[3]
  viability, T/C: 107%
[4]
  viability, T/C: 96.3%
Second compound 0.00316 µM, first compound 3.16 µM
  viability, T/C: 134%
Second compound 0.00316 µM, first compound 10 µM
  viability, T/C: 121%
[5]
  viability, T/C: 88.3%
[6]
  viability, T/C: 107%
[7]
  viability, T/C: 88.5%
[8]
  viability, T/C: 86.4%
Second compound 0.01 µM, first compound 3.16 µM
  viability, T/C: 124%
Second compound 0.01 µM, first compound 10 µM
  viability, T/C: 109%
[11]
  viability, T/C: 75.5%
[12]
  viability, T/C: 77.3%
[13]
  viability, T/C: 89.5%
[14]
  viability, T/C: 80.5%
Second compound 0.0316 µM, first compound 3.16 µM
  viability, T/C: 102%
Second compound 0.0316 µM, first compound 10 µM
  viability, T/C: 98.3%
[17]
  viability, T/C: 72.3%
[18]
  viability, T/C: 66%
[19]
  viability, T/C: 84.8%
[20]
  viability, T/C: 67.8%
Second compound 0.1 µM, first compound 3.16 µM
  viability, T/C: 78%
Second compound 0.1 µM, first compound 10 µM
  viability, T/C: 102%
[23]
  viability, T/C: 78%
[24]
  viability, T/C: 72.3%
[25]
  viability, T/C: 88.5%
[26]
  viability, T/C: 76.9%
Second compound 0.316 µM, first compound 3.16 µM
  viability, T/C: 104%
Second compound 0.316 µM, first compound 10 µM
  viability, T/C: 98.7%
[29]
  viability, T/C: 69%
[30]
  viability, T/C: 78%
[31]
  viability, T/C: 89.3%
[32]
  viability, T/C: 87.5%
Second compound 1 µM, first compound 3.16 µM
  viability, T/C: 95.2%
Second compound 1 µM, first compound 10 µM
  viability, T/C: 93.7%

## CCN1CCN(Cc2ccc(Nc3ncc(F)c(-c4cc(F)c5nc(C)n(C(C)C)c5c4)n3)nc2)CC1 + Cc1nc(NC(=O)N2CCCC2C(N)=O)sc1-c1ccnc(C(C)(C)C(F)(F)F)c1
Second compound 0.0316 µM
  IC50: > 1000 nM
Second compound 0.1 µM
  IC50: > 1000 nM
Second compound 0.316 µM
  IC50: > 1000 nM
Second compound 1 µM
  IC50: > 1000 nM
Second compound 3.16 µM
  IC50: > 1000 nM
Second compound 10 µM
  IC50: > 1000 nM
[9]
  viability, T/C: 95.9%
[10]
  viability, T/C: 92.4%
[11]
  viability, T/C: 87.3%
[12]
  viability, T/C: 72.8%
[13]
  viability, T/C: 75.5%
[14]
  viability, T/C: 102%
[15]
  viability, T/C: 85.8%
[16]
  viability, T/C: 81.7%
[17]
  viability, T/C: 67.9%
[18]
  viability, T/C: 82.8%
[19]
  viability, T/C: 87%
[20]
  viability, T/C: 92.8%
[21]
  viability, T/C: 91.4%
[22]
  viability, T/C: 79.2%
[23]
  viability, T/C: 63.6%
[24]
  viability, T/C: 76.6%
[25]
  viability, T/C: 92%
[26]
  viability, T/C: 88.7%
[27]
  viability, T/C: 63.2%
[28]
  viability, T/C: 77.3%
[29]
  viability, T/C: 76.5%
[30]
  viability, T/C: 80.2%
[31]
  viability, T/C: 86%
[32]
  viability, T/C: 95.2%
Second compound 3.16 µM, first compound 0.00316 µM
  viability, T/C: 72.2%
Second compound 3.16 µM, first compound 0.01 µM
  viability, T/C: 93%
Second compound 3.16 µM, first compound 0.0316 µM
  viability, T/C: 78.7%
Second compound 3.16 µM, first compound 0.1 µM
  viability, T/C: 68.6%
Second compound 3.16 µM, first compound 0.316 µM
  viability, T/C: 79.4%
Second compound 3.16 µM, first compound 1 µM
  viability, T/C: 82.4%
Second compound 10 µM, first compound 0.00316 µM
  viability, T/C: 63.8%
Second compound 10 µM, first compound 0.01 µM
  viability, T/C: 66.1%
Second compound 10 µM, first compound 0.0316 µM
  viability, T/C: 70.7%
Second compound 10 µM, first compound 0.1 µM
  viability, T/C: 53%
Second compound 10 µM, first compound 0.316 µM
  viability, T/C: 65.2%
Second compound 10 µM, first compound 1 µM
  viability, T/C: 74.9%
